Entries after “also recorded” stand apart in the source; their conditions may differ.

The results in this text go back to patent US5494813A, “Nematode control with proteinase inhibitors” (Nickerson Biocem Limited, priority 1991, dated 1996).

For experiment [1], the system named is endoproteinase activity of G. pallida. The experiment can be described thus: Endoproteinase activity of G. pallida female homogenate on RUBISCO with inhibitors/activators (SDS-PAGE densitometry). In kind it is biochemical, Globodera pallida. Particulars: RUBISCO substrate; for % enzyme activity: pH 5.7, 25 C, mean ± SEM, control 100 ± 7, 30 min. Here is the method:
Females of G. pallida were removed from potato roots and homogenised in EDTA (1 mm)-NaOH buffered distilled water (pH 6.0). The nematode homogenate was clarified by centrifugation at 13,000 g for 2 min and passed through non-absorbent cotton wool. The filtrate was used directly as the source of crude proteinases. pH was controlled using 0.1M of citrate-phosphate, sodium-phosphate and phosphate-carbonate buffers for pH 3.0-6.0, pH 6.5-7.5 and 8.0-8.5 respectively. These buffers were mixed with equal volume of the nematode homogenate and RUBISCO (150 μg) in 0.04% SDS resulting in a final reaction volume of 75 μl . […] The tubes were kept on ice for 30 min for full precipitation to occur. The supernatant was clarified by centrifugation (13,000 g, 2 min). The liberation of TCA-soluble amino groups from digested RUBISCO was used to quantify the proteolytic activity of nematode homogenates using 2, 4,6-trinitrobenzsulphonic acid (TNBS). TNBS reagent was made by mixing one volume of 0.3% (w/v) TNBS in water with four volume of 4% (w/v) sodium tetraborate in 0.15M NaOH. 250 μl of the reagent was mixed with 75 μl of sample and the reaction was allowed to proceed for 60 min at 30° C. before terminating by adding […] of 0.5M HCl. The absorbance at 340 nm was read against both homogenate and RUBISCO controls. Results are expressed as nmol of TCA-soluble amino groups liberated per min at 25° C. using a standard curve based on L-leucine in CP buffer.
Subsequent work was based on pH 5.7 using CP buffer. Females of G. pallida were rinsed in 50 mM CP buffer plus 1 mM EDTA and homogenised in ice-cold 50 mM CP buffer, centrifuging and filtering as before. The EDTA wash step was omitted for experiments using inhibitors or activators (see below).
25 μl of RUBISCO (from a stock solution in CP buffer of 1 mg/ml containing 0.04% SDS) was added to 20 μl of the sample homogenate and either 5 μl CP buffer or 5 μl of inhibitor/activator. After incubation for 60 min, the reaction was stopped by adding 30 μl of denaturing buffer and boiling for 2.5 min.
Stock inhibitor and activator solutions (Table 3) were made up in buffer and added to the nematode extract. The inhibitor/activator was pre-incubated with the enzyme solutions for 30 min at 25° C. before addition to the protein substrate
The gel was stained using Coomassie Brilliant Blue.
In order to elucidate the effect of activators and inhibitors on the proteolytic activity of nematode proteinase(s), RUBISCO was treated with the extract at 25 C. at a substrate protein-nematode protein ratio (w/w) of 8. After a 30 min incubation, the reaction mixture was terminated and analysed by SDS-PAGE. The RUBISCO substrate band in the gel was quantified densitometrically (Joyce Loble Chromscan 3), and the amount of protein remaining gave an estimation of the rate of activity of the proteinase.

Experiment [2] relates to proteolytic activity of the 5HT-induced exudate from J2. Nature of the experiment: Proteolytic activity of the 5HT-induced exudate from J2 of G. pallida (biotin/gelatin microtitre plate assay). Format: biochemical, Globodera pallida. Particulars: for Relative Activity (% of controls at that pH), pH 5 / Relative Activity (% of controls at that pH), pH 6.8: CpTi 10 μg/ml, rice preparations 30 μg/ml, other concentrations not given; for Relative Activity (% of controls at that pH), pH 6.8: maize preparation 20 μg/ml. Here is the method:
Freshly hatched juveniles of G. pallida were incubated in 2.5 mM 5'hydroxytryptamine in water at 20° C. for 4 h. This caused material to exude from the mouth which can be visualized at the mouth by allowing the protein stain Ponceau S to diffuse through a small aliquot of the experimental sample containing the nematodes under a microscope slide and coverslip. Worms were removed from the medium by centrifugation at 3000 g for 2 min before the fluid was dialyzed at 4° C. against distilled water overnight. The material was freeze-dried in aliquots at -70° C. until use and reconstituted to 2.5 μg protein/ml dH2 O at 5° C. immediately before use. Assays were carried out in a reaction mixture prepared by mixing 50 μl of this solution with 20 μl of either 100 mM phosphate buffer at pH 6.8 or 100 mM titrate/phosphate buffer at pH 5 plus either 10 μl of the inhibitor under test at the concentrations given in Table 7 or dH2 O for corresponding control rates for the uninhibited exudate.
The assays were carried out by coating microtitre plates (NUNC) with 50 μl of 0.01 μg/ml biotin/gelatin in carbonate buffer (pH 9.6) overnight at 4° C. The plates were blocked with 1% gelatin and washed with PBS before adding 75 μl of freshly prepared reaction mixture for 18 h. The reaction was stopped by washing wells eight times with PBS-tween before adding 100 μl of avidin-conjugated alkaline phosphatase with 1% goat serum to each well for 1 h. The wells were washed as before with PBS-tween followed by 2 rinses in PBS before addition of 100 μl of 1 mg/ml P-nitrophenyl phosphate in substrate buffer (10% diethanolamine and 0.5 mM MgCl2) at pH 9.8. The color development was read at 405 nm using a plate reader (Biorad). All samples were compared against a reference blank which lacked nematode exudate preparation in the reaction mixture.

Turning to p-aminomercuribenzoate [PAMBA], in experiment [1] (pH 5.7), the “Effect on endoproteinase activity (in words)” value is on record as “potent inhibitor; also recorded: almost total inhibition”. For the same compound, the “% enzyme activity” value in experiment [1] is 3 ± 4%.
As to `O=C(O)CN(CCN(CC(=O)O)CC(=O)O)CC(=O)O` [EDTA], in experiment [2], the “Effect on proteolytic activity of the exudate at pH 5 (in words)” value (shortened to “Effect … at pH 5 (in words)”) is “stimulated” and the “Relative Activity (% of controls at that pH), pH 5” value is recorded as greater than 100%. Besides, in experiment [2] (pH 6.8), the “Effect on proteolytic activity of the exudate at pH 6.8 (in words)” value is on record as “inhibited” and the “Relative Activity (% of controls at that pH), pH 6.8” value is 93%.
On to `CC(=O)[O][Hg][c]1ccccc1` [PMA], for which the “Effect on endoproteinase activity (in words)” value in experiment [1] (pH 5.7) was “almost total inhibition”. Further, the “% enzyme activity” value in experiment [1] is reported as 11 ± 6%.
With `OC(CS)C(O)CS` (centres unmarked) [DTT], in experiment [1] (pH 5.7), the “Effect on endoproteinase activity (in words)” value is given as “stimulated”. Besides, the “% enzyme activity” value in experiment [1] was 128 ± 11%.
In the case of `N[C@@H](CS)C(=O)O` [Cys, cysteine], in experiment [2], the “Effect … at pH 5 (in words)” value is recorded as “stimulated” and the “Relative Activity (% of controls at that pH), pH 5” value is on record as greater than 100%. The “Relative Activity (% of controls at that pH), pH 6.8” value in experiment [2] (pH 6.8) is 100%. In addition, the “Effect on endoproteinase activity (in words)” value in experiment [1] (pH 5.7) is listed as “stimulated”. For the same compound, in experiment [1], the “% enzyme activity” value came out at 112 ± 5%.
As to `CC(C)C[C@H](NC(=O)[C@H]1O[C@@H]1C(=O)O)C(=O)NCCCCN=C(N)N` [E-64, L-trans-epoxysuccinyl-leucylamide-(4-guanidino)-butane], in experiment [2], the “Effect … at pH 5 (in words)” value was “inhibited” and the “Relative Activity (% of controls at that pH), pH 5” value is 0%. Moreover, the “Relative Activity (% of controls at that pH), pH 6.8” value in experiment [2] (pH 6.8) stood at 5%. In addition, the “Inhibition of proteolytic activity” value in experiment [1] (pH 5.7) is reported as 21%. The “% enzyme activity” value in experiment [1] is listed as 79 ± 6%.
